IC50 data for one molecule are collected here from US11667630B2, “Nitrogen-containing 6-membered cyclic compound” (Asahi Kasei Pharma Corporation, priority 2017, dated 2023).

The structures appear in SMILES notation.

In the experiment the target is T1, human EP3 receptor (Homo sapiens, UniProt P43115).
T1 construct: purchased Merck Millipore HTS092M
T1 sequence (P43115 1-390): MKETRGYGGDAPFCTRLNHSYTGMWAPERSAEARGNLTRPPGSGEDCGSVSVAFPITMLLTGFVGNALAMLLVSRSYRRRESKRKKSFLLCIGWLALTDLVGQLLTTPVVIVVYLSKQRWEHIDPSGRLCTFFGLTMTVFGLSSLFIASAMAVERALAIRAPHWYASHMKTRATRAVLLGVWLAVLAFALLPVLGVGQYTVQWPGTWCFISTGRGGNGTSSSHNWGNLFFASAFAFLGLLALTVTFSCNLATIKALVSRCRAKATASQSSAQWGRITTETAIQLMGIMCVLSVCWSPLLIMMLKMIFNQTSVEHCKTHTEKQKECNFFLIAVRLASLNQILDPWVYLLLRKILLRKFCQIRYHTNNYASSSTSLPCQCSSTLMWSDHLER
The experiment can be described thus: Receptor binding test, [3H]PGE2 binding inhibition, EP3. The note with it: [3H]PGE2 1.54 nmol/L, membrane fraction HTS092M, 25°C 60 minutes. How it is done: In order to evaluate selectivity to each EP receptor subtype, [^3H]PGE2 binding-inhibition activities of test compounds for cell membranes on which human EP2, human EP3, and human EP4 receptors were stably expressed were measured.
As the membrane fractions of the prostaglandin E receptors EP2, EP3, and EP4, 10.0 μg protein/tube each of HTS185M, HTS092M, and HTS142M of Merck Millipore were used, respectively. Each membrane fraction was incubated with a reaction mixture (250 μL/tube) containing a test compound and [3H]PGE2 at 25° C. for 60 minutes. […] After the reaction, the membrane fraction was collected on filter paper by using a cell harvester, the filter paper was transferred to a measurement vial, and the measurement was performed on a liquid scintillation counter.
The nonspecific binding was determined as binding observed in the presence of excess amount (10 μM) of unlabeled PGE2. The measurement of the [3H]PGE2 binding-inhibiting activity of a test compound was performed by adding the test compound at various concentrations. The following buffers were used for the reaction.
Buffer for EP3: 50 mmol/L Tris-HCl buffer containing 10 mmol/L MgCl2, and 1 mmol/L EDTA

The IC50 is the concentration that gives 50% inhibition. Low values mean greater potency, high ones weaker potency. Take `O=C(O)c1ccc(CCN2C(=O)SCCN2CC[C@@H](O)Cc2cccc(C#Cc3ccsc3)c2)s1` [Example 23, (S)-5-(2-(4-(3-Hydroxy-4-(3-(thiophen-3-ylethynyl)phenyl)butyl)-2-oxo-1,3,4-thiadiazinan-3-yl)ethyl)thiophene-2-carboxylic acid]: the 50% inhibitory concentration (IC50) was greater than 1000 nM.
